# In ChEMBL document CHEMBL5465560, “Selectivity Literature for EUbOPEN Chemogenomic Library” (2024):
# How the values were obtained:
# [1] = target: T1, Tyrosine-protein kinase Tec (Homo sapiens) (UniProt P42680); assay: Selectivity interaction (KinomeScan (DiscoverX)) EUB0001049a TEC; settings: at 1 µM
# T1 sequence (whole entry): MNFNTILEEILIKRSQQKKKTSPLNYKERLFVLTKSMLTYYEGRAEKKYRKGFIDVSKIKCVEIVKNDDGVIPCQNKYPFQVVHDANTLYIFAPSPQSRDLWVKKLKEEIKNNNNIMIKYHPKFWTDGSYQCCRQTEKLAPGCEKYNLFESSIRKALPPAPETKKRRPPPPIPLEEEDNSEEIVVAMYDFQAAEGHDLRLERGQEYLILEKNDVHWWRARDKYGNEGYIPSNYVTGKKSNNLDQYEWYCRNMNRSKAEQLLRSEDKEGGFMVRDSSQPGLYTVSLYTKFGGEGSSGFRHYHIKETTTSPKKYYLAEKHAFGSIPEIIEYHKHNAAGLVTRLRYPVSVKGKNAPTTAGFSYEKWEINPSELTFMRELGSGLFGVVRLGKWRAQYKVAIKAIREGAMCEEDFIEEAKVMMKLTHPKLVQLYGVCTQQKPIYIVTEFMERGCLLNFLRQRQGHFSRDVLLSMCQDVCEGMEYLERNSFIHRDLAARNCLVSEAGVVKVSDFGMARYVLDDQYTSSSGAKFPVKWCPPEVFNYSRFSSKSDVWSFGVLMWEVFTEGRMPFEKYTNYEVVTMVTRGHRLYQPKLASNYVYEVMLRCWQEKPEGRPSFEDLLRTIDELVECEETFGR
# [2] = target: T2, Muscle, skeletal receptor tyrosine-protein kinase (Homo sapiens) (UniProt O15146); assay: Selectivity interaction (KinomeScan (DiscoverX)) EUB0000695a MUSK; settings: at 100 nM
# T2 sequence (whole entry): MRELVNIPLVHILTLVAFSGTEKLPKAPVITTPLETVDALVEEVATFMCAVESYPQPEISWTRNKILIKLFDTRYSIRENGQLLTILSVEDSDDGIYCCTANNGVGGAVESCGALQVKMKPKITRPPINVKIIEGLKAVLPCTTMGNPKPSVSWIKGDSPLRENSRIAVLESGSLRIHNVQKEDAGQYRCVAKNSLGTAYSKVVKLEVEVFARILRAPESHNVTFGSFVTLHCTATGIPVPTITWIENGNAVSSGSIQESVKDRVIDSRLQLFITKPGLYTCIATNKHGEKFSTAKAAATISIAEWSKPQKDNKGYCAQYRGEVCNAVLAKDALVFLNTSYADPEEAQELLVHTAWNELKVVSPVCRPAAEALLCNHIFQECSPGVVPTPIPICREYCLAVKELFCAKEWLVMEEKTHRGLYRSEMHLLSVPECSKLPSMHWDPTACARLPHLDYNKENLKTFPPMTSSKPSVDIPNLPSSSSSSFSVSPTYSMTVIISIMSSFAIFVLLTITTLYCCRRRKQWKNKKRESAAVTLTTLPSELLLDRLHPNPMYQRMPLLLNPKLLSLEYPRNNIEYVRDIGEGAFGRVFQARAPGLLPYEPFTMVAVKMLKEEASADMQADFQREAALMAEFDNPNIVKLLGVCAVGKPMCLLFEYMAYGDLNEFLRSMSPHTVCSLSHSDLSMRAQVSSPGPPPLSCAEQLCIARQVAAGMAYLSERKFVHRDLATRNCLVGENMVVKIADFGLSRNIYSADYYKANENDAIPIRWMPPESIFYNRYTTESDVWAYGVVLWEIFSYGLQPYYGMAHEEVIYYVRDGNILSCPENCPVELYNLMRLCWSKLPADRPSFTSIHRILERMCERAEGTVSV
# [3] = target: Serine/threonine-protein kinase RIO2 (Homo sapiens) (UniProt Q9BVS4); assay: Selectivity interaction (KinomeScan (DiscoverX)) EUB0000695a RIOK2; settings: at 100 nM
# [4] = target: Tyrosine-protein kinase Fgr (Homo sapiens) (UniProt P09769); assay: Selectivity interaction (KinomeScan (DiscoverX)) EUB0000092b FGR; settings: at 10 µM
# [5] = target: Ribosomal protein S6 kinase alpha-1 (Homo sapiens, UniProt Q15418); assay: Selectivity interaction (Kinase panel (KiNativ target engagement assay in Jurkat cells)) EUB0001635a RPS6KA1; format: cell-based; settings: Selectivity number of off-targets 0.0, Selectivity number of targets 233.0, Source Knowledge https://www.sciencedirect.com/science/article/pii/S2451945619300674?via%3Dihub, at 1 µM
# [6] = target: T3, Serine/threonine-protein kinase PLK4 (Homo sapiens) (UniProt O00444); assay: Selectivity interaction (KinomeScan (DiscoverX)) EUB0000666a PLK4; settings: at 10 µM
# T3 sequence (whole entry): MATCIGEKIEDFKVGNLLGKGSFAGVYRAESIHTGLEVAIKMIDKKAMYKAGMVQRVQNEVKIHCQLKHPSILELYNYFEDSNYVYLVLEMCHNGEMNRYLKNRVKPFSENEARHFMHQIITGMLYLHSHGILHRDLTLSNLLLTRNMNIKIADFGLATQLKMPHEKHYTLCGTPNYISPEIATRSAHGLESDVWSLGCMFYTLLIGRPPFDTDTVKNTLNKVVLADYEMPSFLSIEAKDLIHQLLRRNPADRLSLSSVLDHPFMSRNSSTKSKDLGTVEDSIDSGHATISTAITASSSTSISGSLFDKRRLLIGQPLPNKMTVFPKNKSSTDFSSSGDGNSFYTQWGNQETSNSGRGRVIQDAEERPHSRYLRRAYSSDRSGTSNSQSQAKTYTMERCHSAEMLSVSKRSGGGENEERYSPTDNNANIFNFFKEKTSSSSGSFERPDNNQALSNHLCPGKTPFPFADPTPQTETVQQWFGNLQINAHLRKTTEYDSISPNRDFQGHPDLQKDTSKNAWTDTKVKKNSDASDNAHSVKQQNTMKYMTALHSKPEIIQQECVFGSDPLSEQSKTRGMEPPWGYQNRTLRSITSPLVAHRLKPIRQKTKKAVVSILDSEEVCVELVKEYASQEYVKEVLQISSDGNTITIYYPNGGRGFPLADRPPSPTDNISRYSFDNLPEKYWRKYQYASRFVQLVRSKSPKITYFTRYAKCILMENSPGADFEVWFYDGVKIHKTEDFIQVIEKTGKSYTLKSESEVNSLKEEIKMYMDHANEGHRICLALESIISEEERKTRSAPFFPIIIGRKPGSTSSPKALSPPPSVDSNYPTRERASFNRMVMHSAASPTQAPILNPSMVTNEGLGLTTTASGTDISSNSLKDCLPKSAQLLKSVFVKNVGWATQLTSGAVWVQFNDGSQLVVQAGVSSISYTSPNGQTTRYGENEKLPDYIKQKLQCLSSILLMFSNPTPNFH
# Chain of Serine/threonine-protein kinase RIO2 (Homo sapiens) (Q9BVS4 whole entry, looked up): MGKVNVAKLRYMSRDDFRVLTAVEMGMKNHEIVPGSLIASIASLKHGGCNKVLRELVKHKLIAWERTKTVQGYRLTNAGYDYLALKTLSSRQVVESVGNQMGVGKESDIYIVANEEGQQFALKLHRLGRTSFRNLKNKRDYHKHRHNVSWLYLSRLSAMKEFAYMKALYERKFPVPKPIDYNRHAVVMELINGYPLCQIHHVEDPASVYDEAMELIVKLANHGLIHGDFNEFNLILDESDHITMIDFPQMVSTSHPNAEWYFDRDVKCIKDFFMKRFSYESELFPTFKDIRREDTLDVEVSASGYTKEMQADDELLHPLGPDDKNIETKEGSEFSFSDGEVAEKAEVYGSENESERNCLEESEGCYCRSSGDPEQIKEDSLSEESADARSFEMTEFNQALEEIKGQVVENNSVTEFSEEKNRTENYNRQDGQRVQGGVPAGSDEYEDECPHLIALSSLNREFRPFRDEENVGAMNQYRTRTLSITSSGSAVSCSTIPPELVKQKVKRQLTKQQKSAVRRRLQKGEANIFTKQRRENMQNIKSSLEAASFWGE
# Chain of Ribosomal protein S6 kinase alpha-1 (Q15418 whole entry): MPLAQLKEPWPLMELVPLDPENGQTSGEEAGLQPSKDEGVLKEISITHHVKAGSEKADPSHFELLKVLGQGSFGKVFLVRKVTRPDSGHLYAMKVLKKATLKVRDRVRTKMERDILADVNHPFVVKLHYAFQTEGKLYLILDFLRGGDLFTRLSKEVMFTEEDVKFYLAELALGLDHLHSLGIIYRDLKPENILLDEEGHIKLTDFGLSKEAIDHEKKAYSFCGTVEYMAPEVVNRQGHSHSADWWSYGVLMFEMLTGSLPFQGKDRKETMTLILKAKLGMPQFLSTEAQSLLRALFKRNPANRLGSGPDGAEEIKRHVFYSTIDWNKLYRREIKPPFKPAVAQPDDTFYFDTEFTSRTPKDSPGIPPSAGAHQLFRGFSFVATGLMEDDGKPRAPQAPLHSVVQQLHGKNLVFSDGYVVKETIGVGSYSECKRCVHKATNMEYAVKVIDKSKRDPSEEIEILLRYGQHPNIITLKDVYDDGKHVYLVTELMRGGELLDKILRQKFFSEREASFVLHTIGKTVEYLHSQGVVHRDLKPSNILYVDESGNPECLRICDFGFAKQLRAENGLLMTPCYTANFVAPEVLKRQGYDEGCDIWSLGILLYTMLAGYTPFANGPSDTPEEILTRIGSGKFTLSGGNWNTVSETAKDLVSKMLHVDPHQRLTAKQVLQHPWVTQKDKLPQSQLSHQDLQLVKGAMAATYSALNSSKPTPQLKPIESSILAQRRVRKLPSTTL
# Chain of Tyrosine-protein kinase Fgr (Homo sapiens) (P09769 2-529 limits assumed): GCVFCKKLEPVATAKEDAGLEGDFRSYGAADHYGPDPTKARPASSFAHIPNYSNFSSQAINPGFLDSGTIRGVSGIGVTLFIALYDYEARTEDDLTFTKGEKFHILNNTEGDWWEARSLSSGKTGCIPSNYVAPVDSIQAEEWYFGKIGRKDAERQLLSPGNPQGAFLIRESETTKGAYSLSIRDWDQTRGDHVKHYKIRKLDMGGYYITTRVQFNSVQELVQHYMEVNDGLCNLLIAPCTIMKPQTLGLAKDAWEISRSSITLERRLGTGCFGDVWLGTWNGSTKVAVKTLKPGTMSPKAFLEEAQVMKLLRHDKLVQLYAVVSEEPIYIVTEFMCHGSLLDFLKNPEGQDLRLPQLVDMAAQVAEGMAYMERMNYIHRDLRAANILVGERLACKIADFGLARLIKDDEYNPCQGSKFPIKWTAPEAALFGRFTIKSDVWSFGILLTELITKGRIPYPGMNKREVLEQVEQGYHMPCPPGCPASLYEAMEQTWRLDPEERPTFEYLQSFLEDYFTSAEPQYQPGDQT
compound,measurement,setting,value
COc1cc(Nc2nc(C)cc(-c3cnn4nc(OC)ccc34)n2)cc(C(F)(F)F)c1,% of control,[1],78%
Cc1cc(F)c(C(=O)Nc2cccc(-c3nncn3C(C)C)n2)cc1-n1cnc(C2CC2)c1,% of control,[2],91%
same,% of control,[3],100%
CCC(=O)N1CCN(c2ccc(-n3c(=O)ccc4cnc5ccc(-c6cnc7ccccc7c6)cc5c43)cc2C(F)(F)F)CC1,% of control,[4],78%
C=CC(=O)Nc1ccc(C(=O)Nc2[nH]nc3c2CN(C(=O)N[C@H](CN(C)C)c2ccccc2)C3(C)C)cc1,% of engagement,[5],1.2%
O=C(NOC[C@H](O)CO)c1ccc(F)c(F)c1Nc1ccc(I)cc1F,% of control,[6],86%
